Measured values published in patent US7868163B2, “Adenyl dinucleotides with antitumour activity and a method of preparing thereof” (Universita' Degli Studi Di Genova, priority 2005, dated 2011).
Like-named read-outs stand apart in the source and are kept apart here. Blank lines part the entries; values can stand above or below the molecule they belong to.

Tests used:
[1] = tested on: CFC (colony forming cells); assay: CFC colony growth from cord blood mononuclear cells in semi-solid medium; format: cell-based, human; details: for IC50: read-out: IC50, inhibition of CFC colony growth; for reduction of toxicity by digestion with NPP and CIP: FIG. 4, CFC growth
Method: Mononuclear cells isolated from cord blood were incubated in the presence of various concentrations of P18 (▴), P24 (▪) and the iso-adenosine units resulting from the enzymatic digestion of P18 (Δ) and P24 (□). After 24 hours, aliquots of cells (1-2×10^4) were seeded in semi-solid medium to allow for colony growth. Results are expressed as percentage of inhibition of colony growth compared with controls, represented by cells incubated with the same dilution of chromatographic buffer as present in the HPLC-purified compounds. The IC50 values were obtained from the logarithmic regression curves (R≧0.97). The results shown in this figure are the mean from at least three different experiments.
Mononuclear cells were isolated from cord blood (CB MNC) by a density gradient, washed by centrifugation and resuspended in complete medium (Mosmann, T. (1983) J. Immunol. Methods 65, 55-63). Cells (10^6/ml) were incubated for 24 hours in complete medium in the presence of different dinucleotides at concentrations comprised between 20 and 0.4 μM. Then, aliquots of cells (1-2×10^4) were seeded in semi-solid medium, supplemented with haemopoietic growth factors (Methocult, Stem Cell Technologies, Vancouver, BC), in order to allow colonies to develop. After 2 weeks in culture, the colonies which were grown were microscopically identified according to standard criteria (CFU-E, CFU-GM and CFU-GEM) and counted: each colony identifies a colony forming cell (CFC).

[2] = tested on: HEP-G2; assay: MTT reduction proliferation assay, HEP-G2; format: cell-based, human; details: HEP-G2 hepatocarcinoma, 24 hours
Method: (§1) The effect of P18 and P24 on the proliferation of several cell lines was determined by the MTT reduction assay (Mosmann, T. (1983) J. Immunol. Methods 65, 55-63). […] After 24 hours, 10 μl of a 5 mg/ml solution of MTT were added to each well and the plates incubated for a further 2 hours. The supernatant was then removed from each well and the blue crystals produced by the reduction of the dye were dissolved in DMSO (200 μl/well). The optical absorbance at 570 nm was determined with a BioRad microplate reader.
(§2) In these experiments, cells were seeded onto 96 well plates (3×10^4 cells per well) and incubated in the presence of increasing concentrations of P18 or P24. After 24 hours, the percentage of viable cells was evaluated by spectrophotometric measurement of the concentration of reduced MTT (see Materials and Methods). The means of at least three separate experiments are shown (s.d.≦20% of the mean value). The production of P18 and P24 by human CD38 cyclase, with inhibitory effects on colony growth, together with cADPR, with stimulatory effect, may be at least partly responsible for the colony growth inhibition observed during long term culture of human HP cells on CD38^+ stroma. […]

[3] = tested on: CD38^− HeLa cells; assay: Intracellular calcium assay (FURA 2-AM), CD38- HeLa; format: cell-based, human; details: 10 μM for 18 hours; for tapsigargine-induced release of calcium from ER stores [Ca^2+]i: 1 μM tapsigargine
Method: Adherent CD38^+ and CD38^− human HeLa cells on 20 mm-diameter coverslips were incubated in complete medium in the presence of […] P18 or P24 for […]. The cells were then washed, incubated with 6 μM Fura 2-acetoxymethyl ester (FURA 2-AM) in standard saline (135 mM NaCl, 5.4 mM KCl, 1.8 mM CaCl2, 1 mM MgCl2, 5 mM Hepes, 10 mM glucose, pH 7.4) for 45 minutes at 37° C. and then washed several times with saline. Calcium measurements were performed in a 200-μl chamber mounted on an inverted microscope, as described in detail in Zocchi E., et al. (1998) J. Biol. Chem. 273, 8017-8024. After determination of basal [Ca^2+]i levels, 1 μM tapsigargine was added to induce the release of calcium from tapsigargine-sensitive stores ([…]). The parameter values needed for calibration were obtained at the end of the experimental measurements, as described in Zocchi E., et al. (1998) J. Biol. Chem. 273, 8017-8024.
Basal cytosolic calcium and tapsigargine-induced release of calcium from […] (ER) stores (in bold in Table 4) were measured in CD38^+ and CD38^− HeLa cells loaded with FURA 2-AM and incubated in the absence (control) or in the presence of P18 or P24 at a concentration of 10 μM for 18 hours. The results obtained, expressed as [Ca^2+]I nanomolarity, are summarised in Table 4, showing mean results from 8 separate experiments (s.d.≦15% of the mean value).

[4] = tested on: CD38^− HeLa; assay: MTT reduction proliferation assay, CD38- HeLa; format: cell-based, human; details: 24 hours
Method: as §1, §2

[5] = Storage stability of purified lyophilised peaks; details: stored at −20° C., several months (approx. 6)
Method: The cyclase purified from A. polypoides was used for the production of the dinucleotides for structural and functional studies. In a total volume of 0.4 ml of 10 mM Tris-HCl, pH 7.0, 0.05 mg of purified cyclase were incubated with 1 mM cADPR (or NAD^+), 5 mM adenine and 2 mM MgCl2 at room temperature. cADPR or NAD^+ was added to the reaction mixture every 6 hours, while every 24 hours fresh cyclase was added and an aliquot of the incubation was deproteinised with TCA (5% final concentration) and analysed by HPLC (analytical phosphate) to monitor dinucleotide production. After 3-5 days, the resulting incubation was extracted with TCA and 250 μl aliquots were injected into an HPLC column (preparative phosphate). The P18, P24 and P31 peaks were collected, lyophilised in a RotoVapor, re-dissolved in deionised water and injected into an HPLC column (preparative formate). […] The purified peaks produced by Axinella cyclase were used in in vitro experiments on the various cell types described hereinafter, for the enzymatic production of mononucleotides and nucleosides (see below), as internal and external HPLC standards to identify the dinucleotides in cell extracts, and for detecting the absorption spectra stored in the liquid chromatograph library as standards.

[6] = 24 hours incubation of cord blood mononuclear cells, colonies counted after 2 weeks

IC50 [2]: 18.2 µM | IC50 [4]: 9.8 µM | degradation on storage [5]: no dinucleotide degradation was observed
Structure (SMILES): Nc1ncn([C@@H]2O[C@H](COP(=O)(O)OP(=O)(O)OC[C@H]3O[C@@H](n4cnc5c(N)ncnc54)[C@H](O)[C@@H]3O)[C@@H](O)[C@H]2O)c2ncnc1-2 [P24]
IC50 [1, 6]: 0.18 µM | reduction of toxicity by digestion with NPP and CIP [1]: 30 fold | ER stores-calcium, % of the control [3]: 60% | basal [Ca^2+]i, % of the control [3]: 191% | basal cytosolic free calcium [Ca^2+]i [3]: 44 nM | tapsigargine-induced release of calcium from ER stores [Ca^2+]i [3]: 290 nM

Structure (SMILES): Nc1ncnc2c1ncn2[C@@H]1O[C@H](COP(=O)(O)OP(=O)(O)OC[C@H]2O[C@@H](n3cnc4ncnc-4c3N)[C@H](O)[C@@H]2O)[C@@H](O)[C@H]1O [P18]
IC50 ([1]; 2 hours of incubation): 30 µM | IC50 [1, 6]: 1 µM | reduction of toxicity by digestion with NPP and CIP [1]: 40 fold | IC50 [2]: 78 µM | ER stores-calcium, % of the control [3]: 78% | basal [Ca^2+]i, % of the control [3]: 52% | basal cytosolic free calcium [Ca^2+]i [3]: 12 nM | tapsigargine-induced release of calcium from ER stores [Ca^2+]i [3]: 366 nM | IC50 [4]: 150 µM | degradation on storage [5]: no dinucleotide degradation was observed
